Here are results for 2 compounds from patent US20180110740A1, “METHODS AND MATERIALS FOR TREATING ENDOMETRIOSIS” (Mayo Foundation for Medical Education and Research, priority 2015, published 2018).

For data set [1], the system named is endometriotic progression. In words: Dioxin-endometriosis model in wild type mice. Type of data set: in vivo. The conditions noted are these: wild type mice gavaged with Dioxin 3 μg/kg, HATI 0.2 μg/gm/day or vehicle. The procedure:
(§1) Ishikawa cells were treated with Dioxin (0.1-10 nM) and KLF11 or EV-control. Treatment effects were determined on CYP3A4, a well-characterized CYP450 gene that is also an endometrial estrogen metabolizing enzyme. Promoter and gene expression were determined by reporter assay, qPCR, and western blot. CYP3A4 activity was determined by a specific substrate assay. Promoter histone code was evaluated by ChIP in Ishikawa treated with Dioxin and Histone Acetyl Transferase Inhibitor (HATI) or controls. The Dioxin-endometriosis model was created per published protocols in wild type mice gavaged with Dioxin (3 μg/kg) or vehicle. Animals were additionally treated 0.2 μg/gm/day of HATI or vehicle control (N=10/grp). Disease progression was evaluated in 12 weeks by morphometry, IHC, and qPCR.

Data set [2] relates to CYP3A4. The data set can be described thus: CYP3A4 promoter, expression and activity in Ishikawa cells (reporter assay, qPCR, western blot, specific substrate assay). Type of data set: cell-based. The conditions noted are these: Dioxin 0.1-10 nM. The procedure:
as §1
In general terms: Reporter assays use an easily measured gene product as a stand-in for the process of interest.

For data set [3], the system named is endometriotic lesions. The data set can be described thus: Endometriotic lesion model: autologous uterine segments implanted onto the peritoneum of Klf11-/- or wt mice. Type of data set: in vivo. The conditions noted are these: wt animals; 50 μg/g of body weight; evaluated three weeks after treatment; vs DMSO. The procedure: FIG. 4 is a schematic diagram showing the design of the mouse endometriosis model. Two 0.5 cm uterine fragments are everted, so that the endometrium faces the peritonel cavity. These are then sutured to the flank peritoneum on either side by 8/0 proline microfilament suture.
FIG. 5 contains photographs of Klf11^-/- and wt animals induced to produce endometriosis lesions and treated with DMSO (control), garcinol (0.2 μg/g of body weight, or suberoyl anilide hydroxamic acid (SAHA; 50 μg/g of body weight). SAHA is also known as N-hydroxy-N′-phenyl-octanediamide or vorinostat. Endometriotic progression was evaluated three weeks after treatment. The arrows point to and define lesion associated scarring.
In another experiment, endometriotic lesions were induced in Klf11^-/- or wildtype (wt) mice (n=10 for each group) by implanting autologous 5 mm uterine segments onto the peritoneum (FIGS. 3 and 4). […] In addition, COL1A1 polypeptide expression was increased in implants from Klf11^-/- animals (FIGS. 3D and 3H) as compared to those from wt animals (FIGS. 3C and 3G).

On to `Clc1cc2c(cc1Cl)Oc1cc(Cl)c(Cl)cc1O2` [Dioxin, 2,3,7,8-tetrachlorodibenzodioxin], for which the “lesional CYP3A4 expression” value in data set [1] (12 weeks) is reported as “lesional epithelial CYP3A4 activation”. Further, the Score in data set [1] (12 weeks, P<0.05) worked out at 26.4. Further, in data set [1] (evaluated in 12 weeks by morphometry, IHC, qPCR), the endometriotic disease progression result is on record as “prolific endometriotic progression”. The CYP3A4 activation result in data set [2] is “dose-dependently activated”.
As to `O=C(CCCCCCC(=O)Nc1ccccc1)NO` [SAHA, N-hydroxy-N′-phenyl-octanediamide], the fibrosis result in data set [3] is given as “induction of de novo fibrosis”.
